The compounds below were run against T1, androgen receptor (Homo sapiens, UniProt P10275, T878A) (assay: cell-based). Conditions: LNCaP cells, 10 μM test substance, 48 h; AR/actin as percentage of DMSO control.
T1 construct: 2*10^6 LNCaP cells in 6 ml of RPMI 1640 without phenol red are grown; endogenous in cells; host or cells: LNCaP (human prostate cell line)
T1 sequence (P10275 1-920 T878A): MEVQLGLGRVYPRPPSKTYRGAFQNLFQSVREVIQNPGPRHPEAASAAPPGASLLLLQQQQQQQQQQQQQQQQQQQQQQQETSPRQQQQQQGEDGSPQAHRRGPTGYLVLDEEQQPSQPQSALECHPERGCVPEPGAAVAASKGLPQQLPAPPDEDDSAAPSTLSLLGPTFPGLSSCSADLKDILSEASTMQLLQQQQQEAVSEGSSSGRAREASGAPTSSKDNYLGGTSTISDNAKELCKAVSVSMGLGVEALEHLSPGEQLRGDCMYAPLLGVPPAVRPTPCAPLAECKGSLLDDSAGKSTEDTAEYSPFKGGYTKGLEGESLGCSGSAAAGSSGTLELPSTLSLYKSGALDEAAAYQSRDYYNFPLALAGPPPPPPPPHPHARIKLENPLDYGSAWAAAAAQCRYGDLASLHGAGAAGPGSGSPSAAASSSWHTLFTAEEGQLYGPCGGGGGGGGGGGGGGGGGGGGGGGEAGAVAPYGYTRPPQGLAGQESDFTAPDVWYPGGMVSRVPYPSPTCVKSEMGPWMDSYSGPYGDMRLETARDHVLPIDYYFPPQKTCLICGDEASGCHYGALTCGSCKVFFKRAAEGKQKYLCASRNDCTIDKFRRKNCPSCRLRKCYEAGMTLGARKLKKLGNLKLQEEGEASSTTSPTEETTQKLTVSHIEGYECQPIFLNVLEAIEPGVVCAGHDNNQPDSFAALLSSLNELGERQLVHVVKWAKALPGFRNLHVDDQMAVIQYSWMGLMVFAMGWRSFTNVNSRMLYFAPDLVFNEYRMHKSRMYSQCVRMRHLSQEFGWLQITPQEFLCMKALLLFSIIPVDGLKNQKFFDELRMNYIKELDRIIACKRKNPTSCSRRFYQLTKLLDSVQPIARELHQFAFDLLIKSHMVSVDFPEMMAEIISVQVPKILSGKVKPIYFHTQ

SMILES	AR Content [%] At 10 μM [%]
CC1=C(CCCCCCN2CCN(S(=O)(=O)c3ccccc3)CC2)C(=O)N(c2ccc(C#N)c(C(F)(F)F)c2)C1=O [Example 295, 4-[2,5-Dihydro-3-methyl-2,5-dioxo-4-[6-[4-(phenylsulfonyl)piperazin-1-yl]hexyl]-1H-pyrrol-1-yl]-2-(trifluoromethyl)benzonitrite]	48

Same assay, conditions: LNCaP, 48 h, read-out: AR Content [%] At 10 μM

SMILES	remaining activity at 10 µM [%]
CC1=C(CCCCN2CCN(C(=O)C3CCC3)CC2)C(=O)N(c2ccc(C#N)c(C(F)(F)F)c2)C1=O [Example 93, 4-[3-[4-[4-(Cyclobutylcarbonyl)piperazin-1-yl]butyl]-2,5-dihydro-4-methyl-2,5-dioxo-1H-pyrrol-1-yl]-2-(trifluoromethyl)benzonitrile]	53
CC1=C(CCCCN2CCN(C(=O)c3ccc(N(C)C)cc3)CC2)C(=O)N(c2ccc(C#N)c(C(F)(F)F)c2)C1=O [Example 96, 4-[3-[4-[4-[4-(Dimethylamino)benzoyl]piperazin-1-yl]butyl]-2,5-dihydro-4-methyl-2,5-dioxo-1H-pyrrol-1-yl]-2-(trifluoromethyl)benzonitrile]	50
CC1=C(CCCCN2CCN(C(=O)c3cccs3)CC2)C(=O)N(c2ccc(C#N)c(C(F)(F)F)c2)C1=O [Example 99, 4-[2,5-Dihydro-3-methyl-2,5-dioxo-4-[4-[4-[(thien-2-yl)-carbonyl]piperazin-1-yl]butyl]-1H-pyrrol-1-yl]-2-(trifluoromethyl)benzonitrile]	66
CC1=C(CCCCN2CCN(S(=O)(=O)c3ccc(C#N)cc3)CC2)C(=O)N(c2ccc(C#N)c(C(F)(F)F)c2)C1=O [Example 121, 4-[3-[4-[4-[(4-Cyanophenyl)sulfonyl]piperazin-1-yl]butyl]-2,5-dihydro-4-methyl-2,5-dioxo-1H-pyrrol-1-yl]-2-(trifluoromethyl)benzonitrile]	53
COc1ccc(C(=O)N2CCN(CCCCCC3=C(C)C(=O)N(c4ccc(C#N)c(C(F)(F)F)c4)C3=O)CC2)cc1OC [Example 158, 4-[3-[5-[4-(3,4-Dimethoxybenzoyl)piperazin-1-yl]pentyl]-2,5-dihydro-4-methyl-2,5-dioxo-1H-pyrrol-1-yl]-2-(trifluoromethyl)benzonitrile]	22
CC1=C(CCCCCN2CCN(S(=O)(=O)c3cccc4nsnc34)CC2)C(=O)N(c2ccc(C#N)c(C(F)(F)F)c2)C1=O [Example 207, 4-[3-[5-[4-[(2,1,3-Benzothiadiazol-4-yl)sulfonyl]piperazin-1-yl]pentyl]-2,5-dihydro-4-methyl-2,5-dioxo-1H-pyrrol-1-yl]-2-(trifluoromethyl)benzonitrile]	42
CC1=C(CCCCCCN2CCN(C(=O)COc3ccc(Cl)cc3)CC2)C(=O)N(c2ccc(C#N)c(C(F)(F)F)c2)C1=O [Example 264, 4-[3-[6-[4-[(4-Chlorophenoxy)acetyl]piperazin-1-yl]hexyl]-2,5-dihydro-4-methyl-2,5-dioxo-1H-pyrrol-1-yl]-2-(trifluoromethyl)benzonitrile]	37
CC1=C(CCCCCCN2CCN(C(=O)c3ccc(C#N)cc3)CC2)C(=O)N(c2ccc(C#N)c(C(F)(F)F)c2)C1=O [Example 268, 4-[3-[6-[4-(4-Cyanobenzoyl)piperazin-1-yl]hexyl]-2,5-dihydro-4-methyl-2,5-dioxo-1H-pyrrol-1-yl]-2-(trifluoromethyl)benzonitrile]	73
CC1=C(CCCCCCN2CCN(C(=O)CC(C)C)CC2)C(=O)N(c2ccc(C#N)c(C(F)(F)F)c2)C1=O [Example 270, 4-[2,5-Dihydro-3-methyl-4-[6-[4-(3-methyl-1-oxobutyl)piperazin-1-yl]hexyl]-2,5-dioxo-1H-pyrrol-1-yl]-2-(trifluoromethyl)benzonitrile]	65
CC1=C(CCCCCCN2CCN(S(C)(=O)=O)CC2)C(=O)N(c2ccc(C#N)c(C(F)(F)F)c2)C1=O [Example 296, 4-[2,5-Dihydro-3-methyl-4-[6-[4-(methylsulfonyl)piperazin-1-yl]hexyl]-2,5-dioxo-1H-pyrrol-1-yl]-2-(trifluoromethyl)benzonitrile]	48
